Values joined by “and” are separate entries in the source; they are usually repeats but may differ in a detail not shown here. Equal values may be shown once. Toxic doses and inconclusive results are not listed. No stated cut-off is given here; in the data, active means T/C of 150% or more; inactive means T/C below 125%.
Test system: L1210 leukemia ip in BDF1 mice, survival T/C
Experiment: NCI In Vivo Anticancer Drug Screen. Data for tumor model L1210 Leukemia (intraperitoneal) in B6D2F1 (BDF1) mice
Details: endpoint: mean survival time, higher = longer survival
In short: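 Ratio derived from survival: compound-dosed mice over vehicle-dosed mice, all bearing a transplantable tumor.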

[1] = dose: 100.0 mg/kg/injection, schedule: Q01DX001 (ip), vehicle: saline
[2] = dose: 200.0 mg/kg/injection, schedule: Q01DX001 (ip), vehicle: saline
[3] = dose: 400.0 mg/kg/injection, schedule: Q01DX001 (ip), vehicle: saline
[4] = dose: 100.0 mg/kg/injection, schedule: Q01DX001 (ip), vehicle: carboxymethylcellulose (CMC)
[5] = dose: 200.0 mg/kg/injection, schedule: Q01DX001 (ip), vehicle: carboxymethylcellulose (CMC)
[6] = dose: 400.0 mg/kg/injection, schedule: Q01DX001 (ip), vehicle: carboxymethylcellulose (CMC)
[7] = dose: 100.0 mg/kg/injection, schedule: Q04DX003 (ip), vehicle: saline with Tween-80
[8] = dose: 200.0 mg/kg/injection, schedule: Q04DX003 (ip), vehicle: saline with Tween-80
[9] = dose: 50.0 mg/kg/injection, schedule: Q04DX002 (ip), vehicle: Klucel (hydroxypropylcellulose) (HPC)
[10] = dose: 100.0 mg/kg/injection, schedule: Q04DX002 (ip), vehicle: Klucel (hydroxypropylcellulose) (HPC)
[11] = dose: 200.0 mg/kg/injection, schedule: Q04DX002 (ip), vehicle: Klucel (hydroxypropylcellulose) (HPC)
[12] = dose: 100.0 mg/kg/injection, schedule: Q01DX009 (ip), vehicle: Klucel (hydroxypropylcellulose) (HPC)
[13] = dose: 200.0 mg/kg/injection, schedule: Q01DX009 (ip), vehicle: Klucel (hydroxypropylcellulose) (HPC)
[14] = dose: 400.0 mg/kg/injection, schedule: Q01DX009 (ip), vehicle: Klucel (hydroxypropylcellulose) (HPC)
[15] = dose: 100.0 mg/kg/injection, schedule: Q04DX003 (ip), vehicle: Klucel (hydroxypropylcellulose) (HPC)
[16] = dose: 200.0 mg/kg/injection, schedule: Q04DX003 (ip), vehicle: Klucel (hydroxypropylcellulose) (HPC)
[17] = dose: 400.0 mg/kg/injection, schedule: Q04DX003 (ip), vehicle: Klucel (hydroxypropylcellulose) (HPC)
[18] = dose: 50.0 mg/kg/injection, schedule: Q01DX001 (ip), vehicle: carboxymethylcellulose (CMC)
[19] = dose: 400.0 mg/kg/injection, schedule: Q04DX003 (ip), vehicle: saline with Tween-80
[20] = dose: 12.5 mg/kg/injection, schedule: Q04DX003 (ip), vehicle: Klucel (hydroxypropylcellulose) (HPC)
[21] = dose: 100.0 mg/kg/injection, schedule: Q01DX009 (ip), vehicle: saline
[22] = dose: 100.0 mg/kg/injection, schedule: Q04DX003 (ip), vehicle: saline
[23] = dose: 200.0 mg/kg/injection, schedule: Q01DX009 (ip), vehicle: saline
[24] = dose: 200.0 mg/kg/injection, schedule: Q04DX003 (ip), vehicle: saline
[25] = dose: 400.0 mg/kg/injection, schedule: Q01DX009 (ip), vehicle: saline
[26] = dose: 400.0 mg/kg/injection, schedule: Q04DX003 (ip), vehicle: saline

Measured: T/C

COc1cc2c(cc1OC)-c1c(=O)c3cc(OC)c(OC)cc3n([O-])[n+]1CC2
inactive: [1] 93 % of control | [2] 94 % of control | [3] 89 % of control

N/N=C1\c2ccccc2-c2ccc([N+](=O)[O-])cc21
inactive: [4] 95 % of control | [5] 93 % of control | [6] 95 % of control

CCCCCCCC/C=C\CCCCCCCC(=O)OCCCCCC
inactive: dose: 100.0 mg/kg/injection, schedule: Q01DX009 (ip), vehicle: saline sonified 98 % of control | dose: 200.0 mg/kg/injection, schedule: Q01DX009 (ip), vehicle: saline sonified 102 % of control | dose: 400.0 mg/kg/injection, schedule: Q01DX009 (ip), vehicle: saline sonified 93 % of control

O=C(Nc1ccccc1F)c1ccc(C(=O)Nc2ccccc2F)cc1
inactive: dose: 12.5 mg/kg/injection, schedule: Q01DX009 (ip), vehicle: saline with Tween-80 92 % of control | dose: 25.0 mg/kg/injection, schedule: Q01DX009 (ip), vehicle: saline with Tween-80 86 % of control | dose: 50.0 mg/kg/injection, schedule: Q01DX009 (ip), vehicle: saline with Tween-80 90 % of control | [7] 90 % of control | [8] 87 % of control

C/C=C/C[P+](CC)(c1ccccc1)c1ccccc1
inactive: dose: 3.13 mg/kg/injection, schedule: Q01DX009 (ip), vehicle: saline 89 % of control

COc1cc2cc3c4cc(OC)c(OC)cc4cc[n+]3c(CCC(=O)O)c2cc1OC (tested in a mixture with another compound)
inactive: [9] 103 % of control | [10] 98 % of control | [11] 103 % of control

Nc1nc(N)c2[nH]c(CCCc3ccccc3)nc2n1
inactive: [9] 98 % of control | [10] 98 % of control | [11] 98 % of control

O=C(Nc1ccc(Cl)cc1)Nc1cccc(F)c1
inactive: [12] 90 % of control | [13] 94 % of control | [14] 110 % of control

CC1(C)N=C(N)N=C(N)N1c1cccc(OCCOc2ccc([N+](=O)[O-])cc2)c1
inactive: [1] 101 % of control | [2] 95 % of control

NC(=O)CC1=NCCc2ccccc21
inactive: [1] 108 % of control | [2] 108 % of control

c1ccc(CN2C3c4ccccc4C2c2ccccc23)cc1
inactive: [1] 96 % of control | [2] 112 % of control | [3] 95 % of control

COC(=O)c1cc(Cl)ccc1OCC(=O)O
inactive: dose: 100.0 mg/kg/injection, schedule: Q01DX001 (ip), vehicle: Klucel (hydroxypropylcellulose) (HPC) 90 % of control | [15] 102 % of control | dose: 200.0 mg/kg/injection, schedule: Q01DX001 (ip), vehicle: Klucel (hydroxypropylcellulose) (HPC) 93 % of control | [16] 101 % of control | dose: 400.0 mg/kg/injection, schedule: Q01DX001 (ip), vehicle: Klucel (hydroxypropylcellulose) (HPC) 90 % of control | [17] 107 % of control

COc1ccc(OC)c(CCCC(=O)O)c1
inactive: [18] 108 % of control | [4] 104 % of control | [5] 104 % of control | [6] 102 % of control

N#CC(C(=O)c1ccccc1)c1ccccc1 (stereo not drawn)
inactive: dose: 62.5 mg/kg/injection, schedule: Q04DX002 (ip), vehicle: Klucel (hydroxypropylcellulose) (HPC) 108 % of control | dose: 125.0 mg/kg/injection, schedule: Q04DX002 (ip), vehicle: Klucel (hydroxypropylcellulose) (HPC) 96 % of control

Cc1cc(Cl)nc2ccc(Cc3ccc4nc(Cl)cc(C)c4c3)cc12
inactive: [1] 91 % of control | [2] 94 % of control | [3] 96 % of control

NC(=O)n1ncnc1N
inactive: [18] 110 % of control | [4] 101 % of control | [7] 96 % of control | [5] 104 % of control | [8] 97 % of control | [6] 104 % of control | [19] 105 % of control

COC(=O)NS(=O)(=O)/C=C\n1c2ccccc2c2ccccc21
inactive: dose: 75.0 mg/kg/injection, schedule: Q01DX009 (ip), vehicle: Klucel (hydroxypropylcellulose) (HPC) 98 % of control | dose: 150.0 mg/kg/injection, schedule: Q01DX009 (ip), vehicle: Klucel (hydroxypropylcellulose) (HPC) 109 % of control

Cc1cc(C)c(C(=O)O)c(C)c1.[Hg]
inactive: dose: 3.0 mg/kg/injection, schedule: Q04DX003 (ip), vehicle: Klucel (hydroxypropylcellulose) (HPC) 96 % of control | dose: 6.0 mg/kg/injection, schedule: Q04DX003 (ip), vehicle: Klucel (hydroxypropylcellulose) (HPC) 91 % of control | dose: 12.0 mg/kg/injection, schedule: Q04DX003 (ip), vehicle: Klucel (hydroxypropylcellulose) (HPC) 86 % of control | [20] 88 % of control

CC1(C)OC2OC(COC(=O)c3ccccc3)C(O)C2O1 (stereo not drawn)
inactive: [18] 98 % of control | [4] 101 % of control | [5] 104 % of control | [6] 98 % of control

COc1ccc(C(=O)C(O)O)cc1
inactive: [21] 100 % of control | [22] 103 % of control | [23] 96 % of control | [24] 98 % of control | [25] 112 % of control | [26] 103 % of control

CC1=CC(=O)C=C(C(C)C)/C1=C(\c1ccccc1C(=O)O)c1c(C)cc(OP(=O)(O)O)cc1C(C)C
inactive: [21] 103 % of control | [22] 106 % of control | [23] 102 % of control | [24] 97 % of control | [25] 100 % of control | [26] 98 % of control

COc1cc2cc(-c3cc(OC)c(OC)c(OC)c3)c3c(c2cc1OC)CNC3
inactive: dose: 12.5 mg/kg/injection, schedule: Q01DX009 (ip), vehicle: water 103 % of control | dose: 25.0 mg/kg/injection, schedule: Q01DX009 (ip), vehicle: water 93 % of control | dose: 50.0 mg/kg/injection, schedule: Q01DX009 (ip), vehicle: water 97 % of control | dose: 100.0 mg/kg/injection, schedule: Q01DX009 (ip), vehicle: water 102 % of control and 86 % of control | dose: 100.0 mg/kg/injection, schedule: Q04DX003 (ip), vehicle: water 102 % of control | dose: 200.0 mg/kg/injection, schedule: Q04DX003 (ip), vehicle: water 98 % of control | dose: 400.0 mg/kg/injection, schedule: Q04DX003 (ip), vehicle: water 109 % of control

O=c1cc(-c2ccccc2Br)[nH]c2ccccc12
inactive: [1] 96 % of control | [2] 100 % of control | [3] 96 % of control

CC1=CC(=O)C=CC1(C)C(Cl)Cl (stereo not drawn)
inactive: [7] 107 % of control | [8] 100 % of control | [19] 97 % of control

O=[N+]([O-])c1cc(Br)cc(Br)c1O
inactive: dose: 25.0 mg/kg/injection, schedule: Q04DX002 (ip), vehicle: Klucel (hydroxypropylcellulose) (HPC) 109 % of control | [9] 98 % of control | [10] 98 % of control and 91 % of control

COC(=O)c1c(O)cc(OC)cc1OC
inactive: dose: 100.0 mg/kg/injection, schedule: Q01DX009 (ip), vehicle: other 108 % of control | [22] 95 % of control | dose: 200.0 mg/kg/injection, schedule: Q01DX009 (ip), vehicle: other 108 % of control | [24] 97 % of control | dose: 400.0 mg/kg/injection, schedule: Q01DX009 (ip), vehicle: other 108 % of control | [26] 111 % of control

O=C(O)c1cccc(C2CCCCC2)c1
inactive: dose: 75.0 mg/kg/injection, schedule: Q01DX001 (ip), vehicle: other 106 % of control | dose: 150.0 mg/kg/injection, schedule: Q01DX001 (ip), vehicle: other 97 % of control | dose: 300.0 mg/kg/injection, schedule: Q01DX001 (ip), vehicle: other 101 % of control

C=CCNC(=S)NN
inactive: dose: 6.25 mg/kg/injection, schedule: Q04DX003 (ip), vehicle: Klucel (hydroxypropylcellulose) (HPC) 115 % of control | [20] 95 % of control

COc1ccc(NC(=O)Nc2cc(Cl)ccc2OC)c(OC)c1
inactive: [12] 94 % of control | [15] 103 % of control | [13] 102 % of control | [16] 101 % of control | [14] 96 % of control | [17] 101 % of control
